Literature values as cited in patent US8247348B1, “Method of preserving cut plant material” (priority 2007, dated 2012).

Row | Compound | amount that can be lethal (humans; adults, as little as (2 tablespoons)) [milliliters] | estimated LD100 (humans; in humans) | type of antifungal action (fungi) | pH at which effective (fungi; effective only in acidic conditions)
1 | OCCO [Ethylene glycol] | 30 | approximately 1.4 ml/kg |  | 
2 | O=C([O-])c1ccccc1.[Na+] [Sodium benzoate] |  |  | fungistatic not fungicidal | < 4.5
